This is an account of results in US20240294519A1, “PYRROLO[2,3-b]PYRIDINE PGDH INHIBITORS AND METHODS OF MAKING AND USING” (EPIRIUM BIO INC., priority 2021, published 2024).

Molecules are shown by their SMILES.

One experiment deals with T1, 15-PGDH (Homo sapiens, UniProt P15428).
T1 construct: 15-PGDH is highly expressed in resting human lung adenocarcinoma cells (A549); endogenous in cells; host or cells: A549
T1 sequence (P15428 1-266): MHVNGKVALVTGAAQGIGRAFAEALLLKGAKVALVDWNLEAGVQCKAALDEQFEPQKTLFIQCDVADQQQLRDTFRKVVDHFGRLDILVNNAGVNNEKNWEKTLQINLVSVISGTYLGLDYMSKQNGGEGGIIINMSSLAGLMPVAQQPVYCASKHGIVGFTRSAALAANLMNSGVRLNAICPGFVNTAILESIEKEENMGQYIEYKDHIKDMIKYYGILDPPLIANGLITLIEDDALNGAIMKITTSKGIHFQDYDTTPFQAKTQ
As to the kind of experiment: A549 cell based assay: PGE2 in supernatant after IL-1β (HTRF). Conditions: A549 cells, fold induction of PGE2, IL-1β plus test article versus IL-1β only. The procedure:
Cell Based Assay: 15-PGDH is highly expressed in resting human lung adenocarcinoma cells (A549) (Tong et al., 2006), and this cell line was used to assess 15-PGDH inhibition by MF-300Na in vitro.
In this assay, A549 cells are treated with interleukin (IL) 1β, which induces the expression of cycloxygenase-2 and the synthesis of PGE2 (Tong et al., 2006). In the studies evaluating test articles, thirty thousand A549 cells were seeded in 100 μL F12K completed media and incubated for 24 hours at 37° C. with 5% CO2 before being serum-starved for 24 hours. On the day of the experiment, buffer was changed to complete medium, and cells were incubated for 30 minutes with compounds prior to the addition of IL-1β (final concentration of 0.1-0.25 ng/mL) overnight at 37° C. with 5% CO2. Each concentration was run in triplicate. […] The PGE2 in the supernatant was detected and quantified using a Cisbio HTRF technology (Homogeneous Time-Resolved Fluorescence) kit (62P2APEG-62P2APEH) according to the manufacturer's recommendations, quantifying the fold induction of PGE2 of cells treated with IL-1β plus test article, versus treatment with IL-1β only.

Another experiment has as its target T2, 15-PGDH/HPGD (Homo sapiens, UniProt P15428).
T2 construct: purchased R&D System 5660-DH
T2 sequence (P15428 1-266): T1 sequence (P15428 1-266)
Nature of the experiment: hPGDH inhibitor screening biochemical assay. To be noted: 10 nM enzyme, 15 μM PGE2, 0.25 mM NAD, fluorescence ex/em 340/485 nm. The procedure: A hydroxyprostaglandin dehydrogenase inhibition screening biochemical assay can be performed to assess the synthesized inhibitors provided herein. Provided herein is an exemplary biochemical assay for hPGDH inhibitor screening.
The in vitro biochemical assay can be performed in white, 384 plates in total 20 μl reaction volume consisting of 10 nM of 15-PGDH/HPGD (R&D System #5660-DH), 15 μM Prostaglandin E2 (Sigma, C8 t #P5640-10 MG) and 0.25 mM β-Nicotinamide adenine dinucleotide sodium salt (Sigma, C8 t #N0632-5G) made in reaction buffer (50 mM Tris-HCl, pH 7.5, 0.01% Tween 20) at 10-point dose response curve for test/tool compounds. Briefly, 5 μl (4×) of compounds solution and 5 μl (final concentration, 10 nM) of enzyme solution is added to white 384 well plates and incubated for 10 mins at 37° C. 5 μl (4×) of […] and 5 μl (4×) of β-Nicotinamide adenine dinucleotide sodium salt is added to the wells and incubated for 10 mins at room temperature. Fluorescence is recorded at ex/em=340 nm/485 nm. The percentage (%) inhibition of enzyme activity was determined relative to positive control (1% DMSO) and IC50 was calculated using GraphPad prism software (four parameter-variable slope equation).

As for `O=C(c1cnc2c(ccn2-c2ccc3nc(N4CCOCC4)nn3c2)c1)N1CCC(F)(F)CC1` [Compound B-97, (4,4-difluoropiperidin-1-yl)(1-(2-morpholino [1,2,4]triazolo [1,5-a]pyridin-6-yl)-1H-pyrrolo [2,3-b]pyridin-5-yl)methanone], at 15-PGDH, the “PGE2 - HTRF over IL-β induction at 0.001 μM” value came to 1.08, the “PGE2 - HTRF over IL-β induction at 0.01 μM” value turned out to be 2.42, the “PGE2 - HTRF over IL-β induction at 0.1 μM” value was 4.98 and the “PGE2 - HTRF over IL-β induction at 1 μM” value came to 5.37. `C[C@H]1CCCN(C(=O)c2cnc3c(ccn3-c3cnn(CC(F)(F)F)c3)c2)C1` [Compound B-100]: on 15-PGDH, the “PGE2 - HTRF over IL-β induction at 0.001 μM” value is recorded as 0.79, the “PGE2 - HTRF over IL-β induction at 0.01 μM” value was 1.78, the “PGE2 - HTRF over IL-β induction at 0.1 μM” value is recorded as 4.49 and the “PGE2 - HTRF over IL-β induction at 1 μM” value turned out to be 5.26. For `Cc1cn2cc(-n3ccc4cc(C(=O)N5CCC(F)(F)CC5)cnc43)ccc2n1` [Compound B-103], in that order: 1.15, 1.34, 5.1 and 6.3. The corresponding values for `O=C(c1cnc2c(ccn2-c2ccc(N3C(=O)CCC3=O)cc2)c1)N1CCC(F)(F)CC1` [Compound B-106] are 0.90, 0.81, 0.86 and 2.8. Turning to `O=C(c1cnc2c(ccn2-c2ccc(-n3cnnc3)cc2)c1)N1CCC(F)(F)CC1` [Compound B-107], at 15-PGDH, the “PGE2 - HTRF over IL-β induction at 0.001 μM” value was 1.73, the “PGE2 - HTRF over IL-β induction at 0.01 μM” value is reported as 1.31, the “PGE2 - HTRF over IL-β induction at 0.1 μM” value was found to be 2.12 and the “PGE2 - HTRF over IL-β induction at 1 μM” value is 3.51. Regarding `C[C@H]1CCCN(C(=O)c2cnc3c(ccn3-c3ccc4nc(N(C)C)nn4c3)c2)C1` [Compound B-108], on 15-PGDH, the “PGE2 - HTRF over IL-β induction at 0.001 μM” value amounted to 1.57, the “PGE2 - HTRF over IL-β induction at 0.01 μM” value was 2.98, the “PGE2 - HTRF over IL-β induction at 0.1 μM” value turned out to be 3.46 and the “PGE2 - HTRF over IL-β induction at 1 μM” value came to 3.26. The corresponding values for `O=C(c1cnc2c(ccn2-c2ccc(N3CCOC3=O)nc2)c1)N1CCCC(F)(F)C1` [Compound B-115] are 4.36, 3.07, 4.92 and 5.24. For `O=C(O)c1ccc(-n2ccc3cc(C(=O)N4CCC(F)(F)CC4)cnc32)s1` [Compound B-118], in that order: 1.48, 1.55, 1 and 1.02. For `C[C@@]1(O)CCCN(C(=O)c2cnc3c(ccn3-c3cccc(-c4nnc[nH]4)c3)c2)C1` [Compound B-244], the half-maximal inhibitory concentration (IC50) (commonly the concentration needed to halve the response being measured) on 15-PGDH/HPGD was less than 0.1 µM. `CO[C@@H]1CCCN(C(=O)c2cnc3c(ccn3-c3ccc(-c4nnc[nH]4)c(Cl)c3)c2)C1` [Compound B-245] displayed a half-maximal inhibitory concentration (IC50) on 15-PGDH/HPGD of less than 0.1 µM.

On to `CO[C@@H]1CCCN(C(=O)c2cnc3c(ccn3-c3ccc(-c4nnc[nH]4)c(F)c3)c2)C1` [Compound B-246], for which the IC50 at 15-PGDH/HPGD is less than 0.1 µM. For the compound `CO[C@H]1CCCN(C(=O)c2cnc3c(ccn3-c3ccc(-c4nnc[nH]4)c(F)c3)c2)C1` [Compound B-247], on 15-PGDH/HPGD, the half-maximal inhibitory concentration (IC50) was less than 0.1 µM. As to `C[C@]1(O)CCCN(C(=O)c2cnc3c(ccn3-c3ccc(-c4nnc[nH]4)cc3)c2)C1` [Compound B-248], the IC50 against 15-PGDH/HPGD is less than 0.1 µM. The same measure, in the same setting: the result for `C[C@]1(O)CCCN(C(=O)c2cnc3c(ccn3-c3cccc(-c4nnc[nH]4)c3)c2)C1` [Compound B-249] reads less than 0.1 µM.

Compound `CO[C@H]1CCCN(C(=O)c2cnc3c(ccn3-c3cc(Cl)cc(-c4nnc[nH]4)c3)c2)C1` [Compound B-250] yielded an IC50 against 15-PGDH/HPGD of less than 0.1 µM. The same measure, in the same setting: under `O=C(c1cnc2c(ccn2-c2cc(Cl)cc(-c3nnc[nH]3)c2)c1)N1CCSCC1` [Compound B-251] stands less than 0.1 µM.

For the compound `CO[C@H]1CCCN(C(=O)c2cnc3c(ccn3-c3ccc(-c4nnc[nH]4)c(Cl)c3)c2)C1` [Compound B-252], the half-inhibitory concentration (IC50) at 15-PGDH/HPGD was less than 0.1 µM. Still for that read-out and setting: the result for `O=C(c1cnc2c(ccn2-c2ccc(-c3nnc[nH]3)c(Cl)c2)c1)N1CCSCC1` [Compound B-253] reads less than 0.1 µM; that for `O=C(c1cnc2c(ccn2-c2ccc(-c3nnc[nH]3)c(F)c2)c1)N1CCSCC1` [Compound B-254], less than 0.1 µM. Same read-out and setting: the result for `Cc1cc(-n2ccc3cc(C(=O)N4CCC(F)(F)CC4)cnc32)ccc1-c1nnc[nH]1` [Compound B-255] reads less than 0.1 µM; that for `CC(C)OC(=O)Nc1cncc(-n2ccc3cc(C(=O)N4CCSCC4)cnc32)c1` [Compound B-256], less than 0.1 µM. In turn, `O=C(c1cnc2c(ccn2-c2cc(Cl)cc(-c3nnc[nH]3)c2)c1)N1CC[S+]([O-])CC1` [Compound B-257] showed a concentration for half-maximal inhibition (IC50) against 15-PGDH/HPGD of less than 0.1 µM. Still for that read-out and setting: the result for `CC1(O)CCCN(C(=O)c2cnc3c(ccn3-c3ccc(-c4nnc[nH]4)c(Cl)c3)c2)C1` (centres unmarked) [Compound B-258] reads less than 0.1 µM; that for `O=C(c1cnc2c(ccn2-c2cccc(-c3nnc[nH]3)c2)c1)N1CCC[C@H](O)C1` [Compound B-260], less than 0.1 µM; that for `O=C(c1cnc2c(ccn2-c2ccc(-c3nnc[nH]3)c(Cl)c2)c1)N1CC[S+]([O-])CC1` [Compound B-261], 0.1 to 1 µM. The same measure, in the same setting: under `COc1cc(-c2nnc[nH]2)cc(-n2ccc3cc(C(=O)N4CCC(F)(F)CC4)cnc32)c1` [Compound B-263] stands less than 0.1 µM.

Regarding `O=C(c1cnc2c(ccn2-c2cc(Cl)cc(-c3nnc[nH]3)c2)c1)N1CCC[C@H](O)C1` [Compound B-265], the IC50 on 15-PGDH/HPGD is less than 0.1 µM. Take `COc1cc(-n2ccc3cc(C(=O)N4CCC(F)(F)CC4)cnc32)ccc1-c1nnc[nH]1` [Compound B-266]: on 15-PGDH/HPGD, the IC50 is less than 0.1 µM.

As to `O=C(c1cnc2c(ccn2-c2ccc(-c3nnc[nH]3)cc2F)c1)N1CCC(F)(F)CC1` [Compound B-267], the IC50 at 15-PGDH/HPGD was less than 0.1 µM. The same measure, in the same setting: under `O=C(c1cnc2c(ccn2-c2ccc(-c3nnc[nH]3)c(F)c2)c1)N1CC[S+]([O-])CC1` [Compound B-268] stands less than 0.1 µM. At 15-PGDH/HPGD, `O=C(c1cnc2c(ccn2-c2cccc(-c3ncc[nH]3)c2)c1)N1CCC[C@@H](O)C1` [Compound B-269] gave an IC50 of less than 0.1 µM.

`Cc1cc(-n2ccc3cc(C(=O)N4CCC(F)(F)CC4)cnc32)ccc1C(=O)O` [Compound B-270]: at 15-PGDH/HPGD, the IC50 is less than 0.1 µM. The same measure, in the same setting: the result for `Cc1ccc(-c2nnc[nH]2)cc1-n1ccc2cc(C(=O)N3CCC(F)(F)CC3)cnc21` [Compound B-271] reads less than 0.1 µM; that for `O=C(c1cnc2c(ccn2-c2cc(-c3nnc[nH]3)ccc2F)c1)N1CCC(F)(F)CC1` [Compound B-272], less than 0.1 µM. Still for that read-out and setting: the result for `N#Cc1cc(-n2ccc3cc(C(=O)N4CCC(F)(F)CC4)cnc32)ccc1-c1nnc[nH]1` [Compound B-273] reads less than 0.1 µM. The same measure, in the same setting: under `N#Cc1cc(-c2nnc[nH]2)cc(-n2ccc3cc(C(=O)N4CCC(F)(F)CC4)cnc32)c1` [Compound B-274] stands less than 0.1 µM; under `CCOC(=O)Nc1cncc(-n2ccc3cc([S+]([O-])C4CC4)cnc32)c1` (centres unmarked) [Compound B-315], less than 0.1 µM.

In turn, `CCOC(=O)Nc1cncc(-n2ccc3cc([S+]([O-])C4CCCC4)cnc32)c1` (centres unmarked) [Compound B-316] came in with a 50% inhibitory concentration (IC50) on 15-PGDH/HPGD of less than 0.1 µM.
